Paper PMC7689250, “Synthetic Peptide Libraries Designed From a Minimal Alpha-Helical Domain of AS-48-Bacteriocin Homologs Exhibit Potent Antibacterial Activity” (Frontiers in Microbiology, 2020)
Where two headings read alike, the source gives them in different places. Residues, ends and D or L forms follow the SMILES beside them.

How the values were obtained:
E. coli (BL21) = assay type: cell-based, Escherichia coli
How it was run: (§1)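 MIC in Mueller-Hinton broth with 1 × 10^6 CFU/mL bacteria, overnight cultures grown first in LB (E. coli, P. aeruginosa, S. aureus) or Todd-Hewitt (S. pyogenes); growth read as OD 600. Library members screened at half the parent peptide MIC; MBC as lowest concentration giving no colonies after plating MIC wells, 37°C overnight.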

S. pyogenes (M1) = assay type: cell-based, Streptococcus pyogenes; conditions: for MBC: M1; for MIC: M1, 16 h
How it was run: as §1

S. aureus (USA300) = assay type: cell-based, Staphylococcus aureus; conditions: for MBC: USA300; for MIC: USA300, 16 h
How it was run: as §1

P. aeruginosa (PAO1) = assay type: cell-based, Pseudomonas aeruginosa; conditions: for MBC: PAO1; for MIC: PAO1, 16 h
How it was run: as §1

sheep erythrocytes = assay type: cell-based; conditions: red cells of sheep, 1 h
Protocol: To determine if peptide variants were hemolytic, fresh defibrinated whole sheep blood (Hardy Diagnostics) was washed three times in cold PBS, and washed blood was diluted 1:25 in PBS. Treatments were applied at a 1:10 ratio of sample:blood, where the sample was either 10% Triton, PBS, or a specific peptide concentration corresponding to concentrations used in the MIC assays. Treatments were incubated with the blood for 1 h at 37°C. Following incubation, samples were centrifuged at […] for 10 min at 4°C, and the absorbance of the supernatants at 450 nm was measured on the Synergy H1 Microplate Reader to measure the release of hemoglobin. Percent hemolysis was quantified by normalizing to the negative and positive controls.

Compound	MBC (E. coli (BL21); BL21) [µM]	MIC (E. coli (BL21); BL21, 16 h) [µM]	MBC (S. pyogenes (M1)) [µM]	MIC (S. pyogenes (M1)) [µM]	MBC (S. aureus (USA300)) [µM]	MIC (S. aureus (USA300)) [µM]	MBC (P. aeruginosa (PAO1)) [µM]	MIC (P. aeruginosa (PAO1)) [µM]	Percent Hemolysis (sheep erythrocytes) [%]	MIC (E. coli (BL21); E. coli BL21) [µM]	MBC (E. coli (BL21); E. coli BL21) [µM]
CC[C@H](C)[C@H](NC(=O)[C@H](Cc1c[nH]c2ccccc12)NC(=O)[C@H](CCC(N)=O)NC(=O)[C@H](CCCNC(=N)N)NC(=O)CNC(=O)[C@H](C)N)C(=O)N[C@@H](CCCCN)C(=O)N[C@@H](C)C(=O)N[C@@H](Cc1ccc(O)cc1)C(=O)N[C@@H](CC(C)C)C(=O)N[C@@H](CCCNC(=N)N)C(=O)N[C@@H](CCCNC(=N)N)C(=O)N[C@@H](CCC(=O)O)C(=O)N[C@H](C(=O)N[C@@H](CCCNC(=N)N)C(=O)N[C@@H](CCCCN)C(=O)N[C@@H](CCCNC(=N)N)C(=O)NCC(=O)N[C@@H](CCCNC(=N)N)C(=O)N[C@@H](CCCCN)C(=O)N[C@@H](C)C(=O)N[C@H](C(=O)N[C@H](C(=O)N[C@@H](C)C(=O)N[C@@H](Cc1c[nH]c2ccccc12)C(=O)O)[C@@H](C)CC)C(C)C)[C@@H](C)CC [Syn-sordellicin-41] (H-AGRQWIKAYLRREIRKRGRKAVIAW-OH; N-terminus and C-terminus assumed)	2	2	4	2	>128	>128	16	16	15.5	–	–
CC[C@H](C)[C@H](NC(=O)[C@H](CCC(=O)O)NC(=O)[C@H](CCCNC(=N)N)NC(=O)[C@H](CCCNC(=N)N)NC(=O)[C@H](CC(C)C)NC(=O)[C@H](Cc1ccc(O)cc1)NC(=O)[C@H](CCCCN)NC(=O)[C@H](C)NC(=O)[C@@H](NC(=O)[C@@H](NC(=O)[C@H](CCC(N)=O)NC(=O)[C@H](CCCNC(=N)N)NC(=O)CNC(=O)[C@H](C)N)[C@@H](C)O)[C@@H](C)CC)C(=O)N[C@@H](CCCNC(=N)N)C(=O)N[C@@H](CCCCN)C(=O)N[C@@H](CCCNC(=N)N)C(=O)NCC(=O)N[C@@H](CCCNC(=N)N)C(=O)N[C@@H](CCCCN)C(=O)N[C@@H](Cc1c[nH]c2ccccc12)C(=O)N[C@H](C(=O)N[C@H](C(=O)N[C@@H](C)C(=O)N[C@@H](Cc1c[nH]c2ccccc12)C(=O)O)[C@@H](C)CC)C(C)C [Syn-sordellicin-50] (H-AGRQTIAKYLRREIRKRGRKWVIAW-OH; N-terminus and C-terminus assumed)	1	1	2	2	>128	>128	16	8	11.5	–	–
CC[C@H](C)[C@H](NC(=O)[C@H](CCCNC(=N)N)NC(=O)[C@H](CC(N)=O)NC(=O)[C@@H](NC(=O)CNC(=O)[C@H](C)N)[C@@H](C)O)C(=O)N[C@@H](C)C(=O)N[C@@H](CCCCN)C(=O)N[C@@H](CCC(=O)O)C(=O)N[C@@H](CC(C)C)C(=O)N[C@@H](CCCNC(=N)N)C(=O)N[C@@H](CCCNC(=N)N)C(=O)N[C@@H](Cc1ccc(O)cc1)C(=O)N[C@H](C(=O)N[C@@H](CCCNC(=N)N)C(=O)N[C@@H](CCCCN)C(=O)N[C@H](C(=O)NCC(=O)N[C@@H](CCCNC(=N)N)C(=O)N[C@H](C(=O)N[C@@H](CCCCN)C(=O)N[C@@H](CCCNC(=N)N)C(=O)N[C@@H](CCCCN)C(=O)N[C@@H](C)C(=O)N[C@@H](Cc1c[nH]c2ccccc12)C(=O)O)[C@@H](C)CC)C(C)C)[C@@H](C)CC [Syn-sordellicin-80] (H-AGTNRIAKELRRYIRKVGRIKRKAW-OH; N-terminus and C-terminus assumed)	0.5	–	2	2	64	64	16	16	11.3	0.25	–
CC[C@H](C)[C@H](NC(=O)[C@H](CCCNC(=N)N)NC(=O)CNC(=O)[C@@H](NC(=O)[C@H](CCCCN)NC(=O)[C@H](CCCNC(=N)N)NC(=O)[C@@H](NC(=O)[C@H](Cc1ccc(O)cc1)NC(=O)[C@H](CCCNC(=N)N)NC(=O)[C@H](CCCNC(=N)N)NC(=O)[C@H](CC(C)C)NC(=O)[C@H](CCC(=O)O)NC(=O)[C@H](CCCCN)NC(=O)[C@H](C)NC(=O)[C@@H](NC(=O)[C@H](CCCNC(=N)N)NC(=O)[C@H](CC(N)=O)NC(=O)[C@@H](NC(=O)[C@H](CCCCN)NC(=O)[C@H](C)N)[C@@H](C)O)[C@@H](C)CC)[C@@H](C)CC)C(C)C)C(=O)N[C@@H](C)C(=O)N[C@@H](CCCNC(=N)N)C(=O)N[C@@H](CCCCN)C(=O)N[C@@H](C)C(=O)N[C@@H](Cc1c[nH]c2ccccc12)C(=O)O [Syn-sordellicin-96] (H-AKTNRIAKELRRYIRKVGRIARKAW-OH; N-terminus and C-terminus assumed)	–	–	0.5	0.5	32	32	16	8	14.6	0.25	0.25
CC[C@H](C)[C@H](NC(=O)[C@H](Cc1ccccc1)NC(=O)[C@H](C)NC(=O)[C@H](CCCCN)NC(=O)[C@H](CCCCN)NC(=O)[C@H](Cc1c[nH]c2ccccc12)NC(=O)[C@H](CCCNC(=N)N)NC(=O)[C@H](CCCCN)NC(=O)[C@H](CCCNC(=N)N)NC(=O)[C@H](CC(C)C)NC(=O)[C@H](CCC(=O)O)NC(=O)[C@H](CCC(=O)O)NC(=O)[C@H](CC(C)C)NC(=O)[C@H](CC(C)C)NC(=O)[C@H](Cc1ccc(O)cc1)NC(=O)[C@H](CCCCN)NC(=O)[C@@H](NC(=O)[C@H](CC(C)C)NC(=O)[C@H](C)NC(=O)[C@H](CCC(N)=O)NC(=O)[C@H](CCCNC(=N)N)NC(=O)CNC(=O)[C@H](C)N)[C@@H](C)O)C(=O)N[C@@H](C)C(=O)N[C@@H](Cc1c[nH]c2ccccc12)C(=O)O [Syn-xiamencin-20] (H-AGRQALTKYLLEELRKRWKKAFIAW-OH; N-terminus and C-terminus assumed)	1	1	2	2	32	32	64	64	10.5	–	–
CC[C@H](C)[C@H](NC(=O)[C@H](Cc1ccccc1)NC(=O)[C@H](C)NC(=O)[C@H](CCCCN)NC(=O)[C@H](CCCCN)NC(=O)CNC(=O)[C@H](CCCNC(=N)N)NC(=O)[C@H](CCCCN)NC(=O)[C@H](CCCNC(=N)N)NC(=O)[C@H](CC(C)C)NC(=O)[C@H](CCC(=O)O)NC(=O)[C@H](CCC(=O)O)NC(=O)[C@H](CCCCN)NC(=O)[C@H](CC(C)C)NC(=O)[C@H](Cc1ccc(O)cc1)NC(=O)[C@H](CC(C)C)NC(=O)[C@@H](NC(=O)[C@H](CC(C)C)NC(=O)[C@H](C)NC(=O)[C@H](CCC(N)=O)NC(=O)[C@H](CCCNC(=N)N)NC(=O)CNC(=O)[C@H](C)N)[C@@H](C)O)C(=O)N[C@@H](Cc1c[nH]c2ccccc12)C(=O)N[C@@H](Cc1c[nH]c2ccccc12)C(=O)O [Syn-xiamencin-57] (H-AGRQALTLYLKEELRKRGKKAFIWW-OH; N-terminus and C-terminus assumed)	16	16	8	4	32	16	>128	>128	17.0	–	–
